Measured values published in patent publication US8637028B2, “Adjuvant incorporation in immunonanotherapeutics” (President and Fellows of Harvard College, priority 2008, dated 2014).

Tests used:
OT-II CD4 T cells = assay: In vivo CD4 T cell activation (CFSE-labeled OT-II cells); parameters: species or system mouse; conditions: with CpG adjuvant, three days after footpad immunization
Experimental: Subsequently, immunization experiments were performed by injecting one footpad with free OVA or with nanoparticles composed of either PLA or PLGA that encapsulated an equivalent amount of OVA as a model antigen. All antigenic mixtures also contained CpG (a TLR9 agonist) as an adjuvant. The animals were injected, sacrificed three days after immunization, and OT-II T cell activation was assessed by flow cytometry in single-cell suspensions from different tissues.
By contrast, activated T cells divide and in the process split the fluorescent dye evenly between the two daughter cells resulting in an incremental decrease in fluorescence intensity upon each successive division. Thus, the greater the left shift in CFSE, fluorescence the stronger T cells were activated.

[1] = Anti-nicotine IgG in immunized mice (ELISA); assay type: in vivo, mouse; conditions: FIGS. 36 and 37

Compound | local T cell proliferation in distal lymphoid tissues (brachial lymph node, spleen) (OT-II CD4 T cells) | production of nicotine antibodies [1]
free OVA: free chicken ovalbumin model antigen | only undivided cells or cells with very low CFSE content | –
CN1CCCC1c1cccnc1 (centres unmarked) [free nicotine, nicotine] | – | does not elicit the production of nicotine antibodies
